Test results: ChEMBL document CHEMBL1134051, “Synthesis and biological activity of the 1alpha,25-dihydroxyvitamin D3 diastereomer with unnatural configuration at the rings C/D side-chain moiety” (2001)

Assays:
Mus musculus = assay: Dose required to induce hypercalcemia after administration in mice; format: functional
HL-60 = assay: Dosage required for differentiation of HL-60 cells to monocytes; format: functional, Homo sapiens
[1] = Dose required to inhibit proliferation of human peripheral blood mononuclear cells (PMBC); format: functional

| Structure (SMILES) | Dose (Mus musculus) | Dose (HL-60) | Dose [1] |
| --- | --- | --- | --- |
| C=C1/C(=C\C=C2/CCC[C@]3(C)[C@@H]([C@H](C)CCCC(C)(C)O)CC[C@@H]23)C[C@@H](O)C[C@@H]1O [CALCITRIOL] | 0.1 µg/kg | – | – |
| C=C1/C(=C\C=C2/CCC[C@]3(C)[C@@H]2CC[C@H]3[C@@H](C)CCCC(C)(C)O)C[C@@H](O)C[C@@H]1O | – | 100 nM | 100 nM |
